Patent publication US20030105082A1, “Methods for improving the therapeutic response of humans having major depression and carrying the gene for apolipoprotein E4” (priority 2001, published 2003)

Legend:
[1] = test system: patients 65 years of age and older with major depression; assay: 8-week double-blind comparison of paroxetine and mirtazapine: Hamilton Depression Rating Scale (HDRS-17, HDRS-21); format: in vivo, human; details: for HDRS-21 scores, ε4 carriers compared with those without ε4: treatment x genotype interaction p=0.033; for HDRS-17 scores, ε4 carriers compared with those without ε4: treatment x genotype interaction p=0.036; for antidepressant response / onset of action, mirtazapine vs paroxetine / early antidepressant response, ε4 carriers compared with non-ε4 carriers: early weeks of treatment, summary of the example
From the text: Hamilton Depression Rating Scale (HDRS; 17 and 21 item versions of a structured interview) (Hamilton, M., J. Neurol. Neurosurg. Psychiatr. 23:56-62, 1960; Hamilton, M., Br. J. Soc. Clin. Psychol. 6:278-296,1967). […] In other words, a lower rating in the HDRS scale signifies less depression. In contrast, HDRS remitters, which are those patients showing the least depression, are defined as subjects who have an HDRS-17 score of less than 7 at a post-baseline visit.
(§1) All statistical analyses were performed using the SAS software package (available from SAS Institute). For clinical measures of depression (HDRS-21, HDRS-17, GDS, and CGI), analyses of covariance were performed with baseline values as the covariate, and apoE genotype ([…]4 allele carrier vs. non-carrier) and medication (mirtazapine, paroxetine) as the predictors. For remitter and responder analyses of clinical measures of depression, Cochran-Mantel-Haenszel statistics were used. For comparison of medication and genotype groups on baseline demographic measures, two-way analyses of variance were used.

[2] = test system: patients 65 years of age and older with major depression; assay: 8-week double-blind comparison of paroxetine and mirtazapine: Geriatric Depression Scale (GDS); format: in vivo, human; details: for GDS scores, ε4 carriers compared with noncarriers / GDS scores, ε4 carriers compared with those without ε4 / 50% reduction in GDS score (GDS 50% responders), ε4 carriers compared with those without ε4: day 14; for GDS scores, ε4 carriers compared with noncarriers: mirtazapine p=0.025; for GDS scores, ε4 carriers compared with those without ε4 / 50% reduction in GDS score (GDS 50% responders), ε4 carriers compared with those without ε4 / 50% reduction in GDS score, ε4 carriers compared with noncarriers: full cohort; for GDS scores, ε4 carriers compared with those without ε4: mirtazapine p=0.021; for 50% reduction in GDS score (GDS 50% responders), ε4 carriers compared with those without ε4: mirtazapine p=0.046; for 50% reduction in GDS score, ε4 carriers compared with noncarriers: mirtazapine p<0.005
Experimental: Geriatric Depression Scale (GDS) (Yesavage, J.A. et al., J. Psychiatr. Res. 17:37-49, 1983), a self-rating scale developed specifically for rating depression in the elderly. In the GDS, a lower rating signifies less depression. GDS 50% responders are defined as subjects with a decrease on a post-baseline assessment of at least 50% as compared to baseline.
as §1

[3] = test system: patients 65 years of age and older with major depression; assay: 8-week double-blind comparison of paroxetine and mirtazapine: Clinical Global Impression Scale (CGI); format: in vivo, human; details: day 14; for CGI scores, ε4 carriers compared with noncarriers: mirtazapine p=0.028; for CGI scores, ε4 carriers compared with those without ε4: treatment x genotype interaction p=0.029
From the text: Clinical Global Impression Scale (CGI) (Guy, W., ECDEU Assessment Manual for Psychopharmacology, DHEW Publication No. (ADM) 76-338, rev. 1976). The CGI scale is a global 7-point rating of the severity of the illness taking into account the preceding week (CGI-Severity) and a global 7-point rating of the clinical status of the subject since baseline (CGI-Change). A responder is defined as being “Much Improved” or “Very Much Improved”— having a CGI score of […] 2 according to CGI-Change. Thus, a higher CGI-Severity score corresponds to more severe depression whereas a higher CGI-Change score corresponds to lessened depression, or an improvement in alleviating the symptoms of depression.
as §1

[4] = test system: patients 65 years of age and older with major depression; assay: 8-week double-blind comparison of paroxetine and mirtazapine: Mini Mental State Examination (MMSE), cognition; format: in vivo, human; details: for mean MMSE score, ε4 carriers compared with noncarriers: week 8, full cohort, paroxetine p=0.018
Experimental: (§2) A multi-center, randomized, double-blind, 8-week comparison of paroxetine and mirtazapine was performed for 246 nondemented, cognitively intact patients 65 years of age and older with major depression. All patients were genotyped at the apoE locus as discussed further below.
(§3) After an initial evaluation period, the mirtazapine patients started with a 15 mg dose per day. After two weeks of treatment (Day 14), patients' dosages were raised to 30 mg per day. […] Subjects who rate “Much Improved” or “Very Much Improved” on the CGI Scale I continued on the same dose they were receiving during the previous week.
(§4) For paroxetine, the dosing system was the same, except that the starting dosage was 20 mg per day, raised to 30 mg per day, and to a maximum of 40 mg per day.
Mini Mental State Examination (MMSE) (Folstein, M.F. et al., J. Psychiatr. Res. 12:189-198, 1975). This test represents a brief standardized method to grade cognitive mental status. The test assesses orientation, attention, immediate and short-term recall, language, and the ability to follow verbal and written commands. The lower the score, the lower the cognitive mental status.
as §1

[5] = 8-week comparison of paroxetine and mirtazapine: plasma drug concentrations by apoE genotype
Experimental: as §2, §3, §4
(§5) To screen patients for the gene, genomic DNA was extracted from EDTA-treated whole blood using the Puregene DNA extraction kit (available from Gentra Systems). ApoE genotypes were determined using restriction isotyping (restriction enzyme isoform genotyping) according to the protocol of Hixson and Vernier (J. Lipid Res. 31:545-548,1990), as set forth in Murphy, G.E. et al., Am. J. Psychiatr. 154:603-608, 1997. Genotypes were determined by two observers blind as to the clinical or neuropathological diagnosis.

[6] = 8-week comparison of paroxetine and mirtazapine: discontinuation due to adverse events by apoE genotype
Experimental: as §2, §3, §4, §5

[7] = day 14, patients carrying an apoE ε4 allele
[8] = day 14, patients with an apoE ε4 allele, remitter = HDRS-17 score less than 7
[9] = day 14, patients without an apoE ε4 allele
[10] = day 14, Caucasian patients, p=0.006

SMILES | HDRS scores, ε4 carriers compared with noncarriers ([1]; day 14, Caucasian patients) | HDRS-21 scores, ε4 carriers compared with those without ε4 ([1]; day 14, full cohort) | HDRS-17 scores, ε4 carriers compared with those without ε4 ([1]; day 14, full cohort) | HDRS-21 50% responders [1, 7] | HDRS-17 remitters [1, 8] | HDRS-21 50% responders [1, 9] | antidepressant response / onset of action, mirtazapine vs paroxetine [1] | early antidepressant response, ε4 carriers compared with non-ε4 carriers [1] | GDS scores, ε4 carriers compared with noncarriers ([2]; Caucasian patients) | GDS scores, ε4 carriers compared with those without ε4 [2] | 50% reduction in GDS score (GDS 50% responders), ε4 carriers compared with those without ε4 [2] | 50% reduction in GDS score, ε4 carriers compared with noncarriers ([2]; day 28) | CGI scores, ε4 carriers compared with noncarriers ([3]; Caucasian patients) | CGI scores, ε4 carriers compared with those without ε4 ([3]; full cohort) | mean MMSE score, ε4 carriers compared with noncarriers [4] | number of patients who discontinued due to adverse events, ε4 carriers vs noncarriers ([6]; full cohort) | also measured
Fc1ccc([C@@H]2CCNC[C@H]2COc2ccc3c(c2)OCO3)cc1 [paroxetine] | less improvement | higher scores | higher scores | none | none | 23.3% | slower onset of anti-depressant action | particularly slow to respond | no effect | no significant difference | no difference | no effect of apoE genotype | no differences | higher scores | significantly lower | no significant differences | patients showing a 50% decrease in HDRS-17 score over baseline (HDRS-17 50% responders) ([1]; day 14, patients with an apoE ε4 allele): none; effect of the ε4 genotype on the number of patients showing a 50% reduction in GDS ([2]; day 28, Caucasian patients): no significant effect; MMSE score, ε4 carriers compared with those without ε4 ([4]; Caucasian subjects, trend, p=0.05): lower MMSE score; plasma drug concentrations, ε4 carriers vs non-ε4 carriers ([5]; Caucasian subjects): no differences; plasma drug concentrations, ε4 carriers vs non-ε4 carriers ([5]; full cohort): no differences; number of patients who discontinued due to adverse events, ε4 carriers vs noncarriers ([6]; Caucasian subjects): no significant differences
CN1CCN2c3ncccc3Cc3ccccc3C2C1 (stereo not shown) [mirtazapine, 1,2,3,4,10,14b-hexahydro-2-methylpyrazino [2,1a]pyrido[2,3-c]benzazepine] | greater improvement | significantly lower scores | significantly lower scores | 48% | 28% | 29.4% | higher rate of antidepressant response | significantly stronger | significantly lower | large decrease in GDS scores | significantly more likely | significantly more | significantly better | significantly lower scores | no effect | no significant differences | improvement in HDRS-17 scores, mirtazapine-treated vs paroxetine-treated patients ([1]; day 7, full cohort): significantly greater improvement; mean HDRS-17 scores, mirtazapine vs paroxetine [1, 10]: significantly lower; mean HDRS-21 scores, mirtazapine vs paroxetine [1, 10]: significantly lower; percentage of ε4 carriers responding to medication treatment, mirtazapine vs paroxetine ([1]; day 14, Caucasian subjects, each of 50% reduction in HDRS-17, HDRS-21, HDRS-17 remission, 50% reduction in GDS): greater; improvement in HDRS-17 scores, mirtazapine-treated vs paroxetine-treated patients ([1]; day 14, full cohort): Significantly greater improvement; improvement in HDRS-21 scores, mirtazapine-treated vs paroxetine-treated patients ([1]; day 14, full cohort): Significantly greater improvement; HDRS-17 50% responders, ε4 carriers compared with those without ε4 ([1]; day 14, p=0.049): significantly more; HDRS-17 remitters [1, 9]: 7.1%; patients showing a 50% reduction in GDS score ([2]; day 28, Caucasian patients, noncarriers): 16.9%; patients showing a 50% reduction in GDS score ([2]; day 28, Caucasian patients, ε4 carriers): 41.7%; CGI scores, mirtazapine vs paroxetine treated subjects ([3]; Caucasian patients, p=0.037): significantly better; improvement in CGI scores, mirtazapine-treated vs paroxetine-treated patients ([3]; full cohort): Significantly greater improvement; plasma drug concentrations, ε4 carriers vs non-ε4 carriers ([5]; in vivo): no differences; number of patients who discontinued due to adverse events, ε4 carriers vs noncarriers ([6]; in vivo): no significant differences
